For assay [1], the system named is M-NFS-60 mouse myeloid leukemia lymphocytes. In words: CSF-1R-related cell proliferation experiment (Cell Titer Glo). The assay is classed as cell-based. The following applies: 72 h, M-NFS-60 cells, 3 days, CTG. As for the experimental part:
Functional effects of compounds on cell proliferation were evaluated by using Cell Titer Glo (CTG) study in the present invention. M-NFS-60 mouse myeloid leukemia lymphocytes (cat. No. CCBJ078) from National Institutes For Food and Drug Control were cultured in the incubator under conditions of RPMI 1640 (Gibco, cat. No. 11875-119), 10% fetal bovine serum (Gibco, 10099-141), human 10 ng/mL M-CSF macrophage colony-stimulating factor (R&D, cat. No. MVN0915101), 37° C. and 5% CO2. Since ATP is an index for viable cell metabolism, CTG (Promega, #G7573) reagent is a homogeneous detection method for detecting the number of viable cells in the culture by quantifying ATP. Therefore, compound-mediated inhibition for cell proliferation/survival was evaluated by quantifying ATP in cells, and the specific experimental process was as follows: • 1. The cells were plated into a tissue-culture-medium-treated 96-well plate (Costar #3904) with 5,000 cells/well/80 μL fresh culture medium: • 2. 24 hours later, 10 μL culture medium containing testing compound with 10-fold of final concentration was added to each well; • 3. 10 μL of culture medium containing M-CSF with 10-fold of the final concentration was then added to each well: • 4. dosage effect was evaluated by testing the 3-fold serial dilutions of the compound; • 5. after the cells were incubated for 3 days at 37° C. and 5% CO2, the inhibition on cell survival was quantified after 50 μL of CTG was added and the luminescence assay was performed; • 6. the compound concentration leading to half maximal inhibitory (IC50) and the compound concentration leading to absolute half maximal inhibitory (Absolute IC50) were measured by a plate reader (M1000, Tecan) and a four-parameter curve fit in Graphpad Prism 7. D. CSF-1R-Related Cell Proliferation Experiment

Assay [2] deals with T1, CSF-1R (Homo sapiens, UniProt P07333).
T1 construct: 3.95 nM of CSF-1R, 500 μM of ATP and 0.2 mg/mL of polypeptide
In words: CSF-1R in vitro biochemical kinase study (ADP-Glo assay). The following applies: 3.95 nM CSF-1R, 500 μM ATP, 30° C. 60 min, read-out: Enzymatic experiment CSF-1R IC50. The procedure:
In the present invention, the inhibitory activity of compounds against the CSF-1R activity was determined by using CSF-1R ADP-Glo assay. The compound-mediated inhibition effect was achieved by inhibiting the production of ADP from consumption of ATP, and the activities of compounds were evaluated by using the ADP-Glo kit (Promega, cat. No. V9101). The specific experimental process was as follows: • 1. The kinase reaction performed in the present invention was carried out in a 384-well plate (Perkinelmer, cat. No. 6007290), and 3.95 nM of CSF-1R, 500 μM of ATP and 0.2 mg/mL of polypeptide (Poly (Glu4, Try1), Sigma, cat. No. P0275) were respectively weighed and added to each well: • 2. following reagents were then added to each well to reach the final reaction system: 40 mM Tris, pH 7.5, 20 mM MgCl2, 0.01% Triton X-100, 0.1 mg/mL BSA, 2.5 mM DTT and 0.1% DMSO; • 3. the reaction was conducted at 30° C. for 60 min; • 4. then an equal volume of stop solution (ADP-Glo) was added to the kinase reaction system; • 5. the mixed solution was incubated at 25° C. for 60 min, and the kinase reaction was then terminated; • 6. a two-fold volume of detection reagent was then added to each well; • 7. the mixed solution was incubated at 25° C. for 30 min; • 8. the compound IC50 value was measured by using a plate reader (Tecan, M1000) and a four-parameter curve was generated in Graphpad Prism. B. KIT/PDGFRA In Vitro Biochemical Kinase Study • 1. Preparation of 1-fold kinase buffer and stop solution • 1.1 1-fold kinase buffer: 50 mM HEPES, pH 7.5, 0.0015% Brij-35. • 1.2 stop solution: 100 mM HEPES, pH 7.5, 0.015% Brij-35, 0.2% Coating Reagent #3 50 mM EDTA • 2. Preparation of compound solution • 2.1 Dilution of compound solution • 1) The final concentration of the compound solution was 40 μM. and the concentration of the prepared stock solution was 50 times of the final concentration, i.e., 2 mM. • 2) 80 μL of 100% DMSO was added to the second well of the 96-well plate, then 20 μL of 10 mM compound solution was added, and thereby 2 mM compound solution was prepared, 60 μL of 100% DMSO was added to other wells, 20 μL of compound was taken from the second well, added to the third well and diluted by 4 times. This serial 4-time dilution was conducted in sequence for the total of 10 concentrations. • 2.2 5-fold compound solution transferred to a reaction plate • 1) 10 μL of solution was taken from each well of the above 96-well plate and added to another 96-well plate, and 90 μL of kinase buffer was added. • 2) 5 μL of solution was taken from the above 96-well plate and added to a 384-well reaction plate. • 2.3 Kinase reaction • 1) KIT/PDGFRA kinase was added to the 1-fold kinase buffer solution to obtain a 2.5-fold kinase solution. • 2) FAM-labeled polypeptide and ATP were added to the 1-fold kinase buffer solution to obtain a 2.5-fold substrate solution. • 3) 10 μL of 2.5-fold kinase solution was added to the 384-well reaction plate, which already contained 5 μL of 5-fold compound in 10% DMSO. And the mixed solution was incubated at room temperature for 10 min. • 4) 10 μL of 2.5-fold substrate solution was added to the 384-well reaction plate. • 5) Kinase reaction and termination: the mixed solution was incubated at 28° C. for a certain period of time, and 25 μL of stop solution was added to stop the reaction. • 2.4 Data reading of Caliper EZ Reader II • 2.5 Calculation of percent inhibition and IC50 • 1) Percent conversion data were copied from the Caliper EZ Reader. • 2) Percent conversion was converted into percent inhibition data, wherein, max referred to percent conversion of the DMSO control, and min referred to percent conversion of the negative control without kinase activity. Percent inhibition=(max−conversion)/(max−min)*100. • 3) The IC50 value was fitted with XLFit excel add-in version 5.4.0.8: Fitting formula: Y=Bottom+(Top−Bottom)/(1+(IC50/X)^HillSlope).

Assay [3] concerns the target PDGFRA (Homo sapiens, UniProt P16234). The assay is described as follows: PDGFRA in vitro biochemical kinase study (Caliper EZ Reader). The note with it: FAM-labeled polypeptide, Caliper EZ Reader II; read-out: Enzymatic experiment PDGFRA IC50. The procedure: (§1) In the present invention, the inhibitory activity of compounds against the CSF-1R activity was determined by using CSF-1R ADP-Glo assay. The compound-mediated inhibition effect was achieved by inhibiting the production of ADP from consumption of ATP, and the activities of compounds were evaluated by using the ADP-Glo kit (Promega, cat. No. V9101). The specific experimental process was as follows: • 1. The kinase reaction performed in the present invention was carried out in a 384-well plate (Perkinelmer, cat. No. 6007290), and 3.95 nM of CSF-1R, 500 μM of ATP and 0.2 mg/mL of polypeptide (Poly (Glu4, Try1), Sigma, cat. No. P0275) were respectively weighed and added to each well: • 2. following reagents were then added to each well to reach the final reaction system: 40 mM Tris, pH 7.5, 20 mM MgCl2, 0.01% Triton X-100, 0.1 mg/mL BSA, 2.5 mM DTT and 0.1% DMSO; • 3. the reaction was conducted at 30° C. for 60 min; • 4. then an equal volume of stop solution (ADP-Glo) was added to the kinase reaction system; • 5. the mixed solution was incubated at 25° C. for 60 min, and the kinase reaction was then terminated; • 6. a two-fold volume of detection reagent was then added to each well; • 7. the mixed solution was incubated at 25° C. for 30 min; • 8. the compound IC50 value was measured by using a plate reader (Tecan, M1000) and a four-parameter curve was generated in Graphpad Prism. B. KIT/PDGFRA In Vitro Biochemical Kinase Study • 1. Preparation of 1-fold kinase buffer and stop solution • 1.1 1-fold kinase buffer: 50 mM HEPES, pH 7.5, 0.0015% Brij-35. • 1.2 stop solution: 100 mM HEPES, pH 7.5, 0.015% Brij-35, 0.2% Coating Reagent #3 50 mM EDTA • 2. Preparation of compound solution • 2.1 Dilution of compound solution • 1) The final concentration of the compound solution was 40 μM. and the concentration of the prepared stock solution was 50 times of the final concentration, i.e., 2 mM. • 2) 80 μL of 100% DMSO was added to the second well of the 96-well plate, then 20 μL of 10 mM compound solution was added, and thereby 2 mM compound solution was prepared, 60 μL of 100% DMSO was added to other wells, 20 μL of compound was taken from the second well, added to the third well and diluted by 4 times. […]

The target of assay [4] is KIT (Homo sapiens, UniProt P10721). In words: KIT in vitro biochemical kinase study (Caliper EZ Reader). The note with it: FAM-labeled polypeptide, Caliper EZ Reader II; read-out: Enzymatic experiment KIT IC50. As for the experimental part:
as §1

The test system of assay [5] is MV-4-11 human acute monocytic leukemia cells. The assay is described as follows: FLT3-related cell proliferation experiment (Cell Titer Glo). The note with it: MV4-11, 72 h, MV-4-11 cells, 3 days, CTG, read-out: Cytological experiment FLT3 IC50. The format is cell-based. The procedure:
(§2) Functional effects of compounds on the proliferation of several cell lines were evaluated by Cell Titer Glo (CTG) studies in the present invention, and effects of the compounds on the proliferation of different cells were evaluated to determine the selectivity degree of the compounds. In the study, M-07e human cytomegalic leukemia cells (cat. No. CBP60791) from Nanjing Kebai Biotechnology Co., Ltd. were cultured in an incubator under conditions of RPMI1640 (Gibco, cat. No. 11875-119), 20% fetal bovine serum (Gibco, 10099-141), human 10 ng/mL GM-CSF granulocyte macrophage colony-stimulating factors (R&D, cat. No. 215-GM-010), 37° C. and 5% CO2; and Kasumi-1 human acute myeloblastic leukemia cells (cat. No. CBP60524) were cultured in an incubator under conditions of RPMI1640 (Gibco, cat. No. 11875-119), 20% fetal bovine serum (Gibco, 10099-141), 37° C. and 5% CO2; NCI-H1703 human non-small cell lung squamous carcinoma cells (cat. No. CBP60115) were cultured in an incubator under conditions of RPMI1640 (Gibco, cat. No. 11875-119), 10% fetal bovine serum (Gibco, 10099-141), 37° C. and 5% CO2; and MV-4-11 human acute monocytic leukemia cells (cat. No. CBP60522) were cultured in an incubator under conditions of IMDM (Invitrogen, cat. No. 12440053), 20% fetal bovine serum (Gibco, 10099-141), 37° C. and 5% CO2. Since ATP is an index for viable cell metabolism, CTG (Promega, #G7573) reagent is a homogeneous detection method for detecting the number of viable cells in the culture by quantifying ATP. Therefore, compound-mediated inhibition for cell proliferation/survival was evaluated by quantifying ATP content in cells, and the specific experimental process was as follows.
III) MV-4-11 Human Acute Monocytic Leukemia Cell • 1.

Assay [6] relates to NCI-H1703 human non-small cell lung squamous carcinoma cells. The assay is described as follows: PDGFRA-related cell proliferation experiment (Cell Titer Glo). The format is cell-based. The following applies: 72 h, 3 days, CTG, read-out: Cytological experiment PDGFRA IC50. As for the experimental part: as §2
II) NCI-H1703 Human Non-Small Cell Lung Squamous Carcinoma Cell • 1.

Assay [7] deals with M-07e human cytomegalic leukemia cells. The assay is described as follows: KIT-related cell proliferation experiment (Cell Titer Glo). The assay is classed as cell-based. The note with it: 72 h, M-07e cells, SCF, 3 days, CTG, read-out: Cytological experiment KIT IC50. As for the experimental part: as §2
I) M-07e Human Cytomegalic Leukemia Cell: • 1. The cells were plated into a tissue-culture-medium-treated 96-well plate (Costar #3904) with 3500 cells/well/80 μL fresh culture medium, and cultured for 24 hrs; • 2. the next day, 10 μL of culture medium containing testing compound with 10-fold of final concentration was added to each well; • 3.

Setting [8] is: absolute half maximal inhibitory concentration, read-out: Cytological experiment CSF-1R Absolute IC50.
Setting [9] is: read-out: Cytological experiment CSF1R IC50.

pIC50: −log10 of the molar value. Like-named read-outs stand apart in the source and are kept apart here.

Chain of KIT (P10721 26-976): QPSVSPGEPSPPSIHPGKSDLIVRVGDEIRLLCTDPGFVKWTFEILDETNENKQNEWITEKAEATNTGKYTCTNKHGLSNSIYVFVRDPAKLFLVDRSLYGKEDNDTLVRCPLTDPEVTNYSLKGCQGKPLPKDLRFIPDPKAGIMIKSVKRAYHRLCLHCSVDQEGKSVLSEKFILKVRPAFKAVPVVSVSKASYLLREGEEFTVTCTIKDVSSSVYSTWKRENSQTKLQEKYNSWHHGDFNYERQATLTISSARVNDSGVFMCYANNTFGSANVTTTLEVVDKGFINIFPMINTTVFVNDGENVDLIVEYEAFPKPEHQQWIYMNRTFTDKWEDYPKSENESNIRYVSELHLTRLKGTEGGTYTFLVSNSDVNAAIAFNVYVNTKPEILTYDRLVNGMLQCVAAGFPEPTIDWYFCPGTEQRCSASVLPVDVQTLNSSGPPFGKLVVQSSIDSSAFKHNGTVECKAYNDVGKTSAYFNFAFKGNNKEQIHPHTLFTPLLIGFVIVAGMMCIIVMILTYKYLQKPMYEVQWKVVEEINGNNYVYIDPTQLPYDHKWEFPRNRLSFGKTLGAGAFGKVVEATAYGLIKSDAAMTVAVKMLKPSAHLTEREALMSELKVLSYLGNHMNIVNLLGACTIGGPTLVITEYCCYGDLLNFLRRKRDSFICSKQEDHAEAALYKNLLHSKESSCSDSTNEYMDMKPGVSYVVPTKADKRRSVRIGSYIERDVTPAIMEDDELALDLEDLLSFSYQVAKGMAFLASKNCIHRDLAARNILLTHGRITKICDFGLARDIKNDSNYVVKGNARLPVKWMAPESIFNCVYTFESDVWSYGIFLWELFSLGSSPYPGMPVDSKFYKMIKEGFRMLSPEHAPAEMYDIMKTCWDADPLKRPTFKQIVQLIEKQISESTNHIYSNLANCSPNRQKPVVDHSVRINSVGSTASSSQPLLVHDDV
Chain of PDGFRA (P16234 24-1089): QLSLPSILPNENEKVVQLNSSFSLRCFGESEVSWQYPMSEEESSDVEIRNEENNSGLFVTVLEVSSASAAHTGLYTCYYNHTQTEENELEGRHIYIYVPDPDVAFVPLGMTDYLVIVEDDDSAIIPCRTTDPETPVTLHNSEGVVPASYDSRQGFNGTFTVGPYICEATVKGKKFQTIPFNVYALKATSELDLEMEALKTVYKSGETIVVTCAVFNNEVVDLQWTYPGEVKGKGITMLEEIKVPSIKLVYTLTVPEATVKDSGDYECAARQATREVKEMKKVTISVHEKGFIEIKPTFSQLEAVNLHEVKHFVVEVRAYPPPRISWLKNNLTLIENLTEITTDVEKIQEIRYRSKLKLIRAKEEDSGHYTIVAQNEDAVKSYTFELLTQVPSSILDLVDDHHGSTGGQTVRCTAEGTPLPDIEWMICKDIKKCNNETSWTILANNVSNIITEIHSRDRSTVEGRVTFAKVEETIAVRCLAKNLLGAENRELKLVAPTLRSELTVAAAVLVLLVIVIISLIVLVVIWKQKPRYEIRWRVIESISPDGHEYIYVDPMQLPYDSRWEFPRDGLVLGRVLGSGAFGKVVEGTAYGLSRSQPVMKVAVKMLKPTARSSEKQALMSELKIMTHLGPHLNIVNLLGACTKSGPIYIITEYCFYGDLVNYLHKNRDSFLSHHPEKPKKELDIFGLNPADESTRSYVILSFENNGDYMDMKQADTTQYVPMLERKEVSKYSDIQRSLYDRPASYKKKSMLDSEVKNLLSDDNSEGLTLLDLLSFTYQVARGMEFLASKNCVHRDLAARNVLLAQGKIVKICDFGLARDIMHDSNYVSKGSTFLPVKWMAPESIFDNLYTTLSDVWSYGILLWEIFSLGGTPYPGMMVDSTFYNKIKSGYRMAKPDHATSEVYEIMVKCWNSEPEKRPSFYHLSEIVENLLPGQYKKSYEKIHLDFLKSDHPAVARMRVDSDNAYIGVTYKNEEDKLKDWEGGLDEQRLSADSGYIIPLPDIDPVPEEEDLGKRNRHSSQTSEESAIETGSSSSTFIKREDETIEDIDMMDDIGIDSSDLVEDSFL
T1 sequence (P07333 20-972): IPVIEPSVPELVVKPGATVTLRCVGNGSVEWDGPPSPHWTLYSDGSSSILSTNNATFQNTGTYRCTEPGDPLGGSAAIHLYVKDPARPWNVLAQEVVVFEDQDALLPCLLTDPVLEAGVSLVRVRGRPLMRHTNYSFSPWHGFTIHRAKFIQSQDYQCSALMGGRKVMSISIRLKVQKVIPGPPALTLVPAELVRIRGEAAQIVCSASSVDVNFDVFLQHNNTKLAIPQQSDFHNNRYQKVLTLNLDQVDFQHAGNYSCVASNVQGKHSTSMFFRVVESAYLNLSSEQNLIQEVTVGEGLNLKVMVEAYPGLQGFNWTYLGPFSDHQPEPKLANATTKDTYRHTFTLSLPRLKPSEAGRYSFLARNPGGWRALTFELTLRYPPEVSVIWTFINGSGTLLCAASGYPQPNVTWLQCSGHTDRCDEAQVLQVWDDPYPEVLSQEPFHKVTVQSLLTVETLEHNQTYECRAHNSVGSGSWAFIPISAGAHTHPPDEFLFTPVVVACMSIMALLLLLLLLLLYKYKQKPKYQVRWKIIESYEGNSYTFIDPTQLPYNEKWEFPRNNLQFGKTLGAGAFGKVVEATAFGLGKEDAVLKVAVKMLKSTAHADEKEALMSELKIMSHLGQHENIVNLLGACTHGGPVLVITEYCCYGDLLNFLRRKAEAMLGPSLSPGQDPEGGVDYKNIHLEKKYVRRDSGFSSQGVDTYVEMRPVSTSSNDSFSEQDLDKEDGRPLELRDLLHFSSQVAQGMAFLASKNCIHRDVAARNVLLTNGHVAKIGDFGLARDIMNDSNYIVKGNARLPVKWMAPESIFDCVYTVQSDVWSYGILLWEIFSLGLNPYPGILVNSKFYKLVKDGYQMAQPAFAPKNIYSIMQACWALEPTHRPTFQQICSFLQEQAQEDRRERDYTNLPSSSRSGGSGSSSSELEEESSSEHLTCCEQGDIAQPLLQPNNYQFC

In the case of `Cc1nc(-c2cnc(NC(C)C)[nH]c2=O)ccc1Cc1c[nH]c2ncccc12` [Example 1, 5-(5-((1H-pyrrolo[2,3-b]pyridin-3-yl)methyl)-6-methylpyridin-2-yl)-2-(isopropylamino)pyrimidin-4(3H)-one], the negative-log IC50 (pIC50) is 7.73 in assay [1] (setting [8]); 7.33 in assay [1] (setting [9]); 7.56 in assay [2]; 5.16 in assay [3]; 6.61 in assay [4].

In the case of `Cc1nc(-c2cnc(NC(C)C)n(C)c2=O)ccc1Cc1c[nH]c2ncc(Cl)cc12` [Example 10, 5-(5-((5-chloro-1H-pyrrolo[2,3-b]pyridin-3-yl)methyl)-6-methylpyridin-2-yl)-2-(isopropylamino)-3-methylpyrimidin-4(3H)-one], the pIC50 in assay [1] (setting [8]) is 7.50; in assay [1] (setting [9]), 7.40; in assay [2], 7.49; in assay [3], 6.17; in assay [4], 7.86.

Turning to `CCN1CCCn2c1ncc(-c1ccc(Cc3c[nH]c4ncccc34)c(C)n1)c2=O` [Example 19, 3-(5-((1H-pyrrolo[2,3-b]pyridin-3-yl)methyl)-6-methylpyridin-2-yl)-9-ethyl-6,7,8,9-tetrahydro-4H-pyrimido[1,2-a]pyrimidin-4-one], the pIC50 in assay [1] (setting [8]) was 7.25; in assay [1] (setting [9]), 7.17; in assay [5], 5.52; in assay [6], 5.45; in assay [7], 6.01.

Values taken from patent US11180495B2 (Abbisko Therapeutics Co., Ltd., priority 2017, dated 2021).
